Experiments:
[1] = solubility of dye in resin formulation; format: physicochemical; settings: final resin formulation (oligomer, PC, DDFD)
Experimental: The C&D Green Dye #6 is added to the resin to increase the absorbance of the resin for higher resolution printing. […] To mix C&D Green Dye #6 into the resin, the dye is first solubilized in PC at 0.06 wt % at 80° C. The stock solution of 0.06 wt % dye in PC is added to the oligomer to achieve the desired 0.03% concentration in the final resin.
Crystals of the C&D Green Dye #6 may be observed in this resin. C&D Green Dye #6 tends to crystalize in the resin. To prevent crystal aggregation, this resin should be mixed fresh prior to printing.

[2] = versus BAPO; cited from earlier work

solubility in the final formulation [1] | SMILES | cytotoxicity relative to traditional UV photoinitiators such as BAPO [2]
limited solubility | Cc1ccc(Nc2ccc(Nc3ccc(C)cc3)c3c2C(=O)c2ccccc2C3=O)cc1 [C&D Green Dye #6, 1,4-bis(p-tolylamino)anthraquinone] | –
– | CC1(C)COC(=O)C1=O [DDFD, dihydro-4,4-dimethyl-2,3-furandione] | orders of magnitude less cytotoxic
